Results reported in patent US20230135373A1, “METHODS AND COMPOSITIONS FOR TREATING SLEEP APNEA” (APNIMED, INC. (DELAWARE), priority 2020, published 2023).

Columns and labels:
[1] = system: healthy human individuals; assay: Pilot study of genioglossus muscle activity (EMGGG); format: in vivo
Description: In healthy human individuals, the effect of once daily taltirelin 5 mg on genioglossus muscle activity is measured in a pilot study.
A first group of the patients is given once daily taltirelin 5 mg. A second group of patients is given placebo. Genioglossus muscle activity (EMGGG, quantified as a percentage of maximum) is measured during quiet wakefulness. Each peak EMGGG of a single breath is measured and is plotted against the corresponding epiglottic pressure. In addition, EMGGG is measured during stable NREM sleep.

OSA human patients = assay: Placebo-controlled, double-blinded, randomized, crossover trial in OSA; format: in vivo; conditions: once daily 5-10 mg, 30 minutes before sleep
Description: A placebo-controlled, double-blinded, randomized, crossover trial in OSA human patients is performed. Participants receive treatment (once daily taltirelin 5-10 mg) or placebo in randomized order 30 minutes before sleep.

## CN1C(=O)C[C@@H](C(=O)N[C@@H](Cc2cnc[nH]2)C(=O)N2CCC[C@H]2C(N)=O)NC1=O [taltirelin]
[1]; once daily 5 mg, NREM sleep
  EMGGG activity during NREM sleep compared to placebo: much higher EMGGG activity
[1]; once daily 5 mg, subjects exhibiting REM sleep
  effect during REM sleep: effective during REM sleep
[1]; once daily taltirelin 5 mg vs placebo night, during sleep
  sleep-related reduction in pharyngeal muscle activity (EMGGG): partially or completely prevented
OSA human patients
  genioglossus muscle responsiveness to an increase in ventilatory drive: increased genioglossus muscle responsiveness
  oxygen levels (SaO2): increased oxygen levels
  sleep efficiency: improved sleep efficiency
  total sleep time: increased total sleep time
  upper airway muscle activity: improved upper airway muscle activity
  ventilation: improved ventilation
OSA human patients; all patients
  OSA severity: improvement in OSA severity
OSA human patients; vs placebo
  apnea hypopnea index: reduce the apnea hypopnea index
